The source made the active and inactive calls. No cut-off for these calls is given here.

Data set [1] has as its system J774. As to the kind of experiment: Antiproliferative activity against mouse J774 cells after 96 hrs by MTT assay. It is filed as cell-based. Conditions: j774, 96 h.
Data set [2] deals with WEHI. As to the kind of experiment: Antiproliferative activity against mouse WEHI 164 cells after 96 hrs by MTT assay. It is filed as functional, cell-based.

For the compound `Cc1cc[n+](C)cc1CCC(=O)[O-]` [SULCATIN], the result in data set [1] was Active. Also, the result in data set [2] was Active.

Source of the values: ChEMBL document CHEMBL1154568, “Sulcatin, a novel antiproliferative N-methylpyridinium alkaloid from the ascidian Microcosmus vulgaris” (J Nat Prod, 2000).
